pIC50: −log10 of the molar value. Values belong to the compound of their own block, whether it stands above or below them.
What was measured:
CYP3A4 = CYP3A4 (Homo sapiens, UniProt P08684); assay: CYP3A4 fluorescent MBI test; assay type: in vitro ADME; set-up: host or cells: E. coli; conditions: E. coli-expressing CYP3A4, substrate 7-BFC, pre-reaction 0 or 30 minutes
Procedure: The CYP3A4 fluorescent MBI test is a test to examine enhancement of CYP3A4 inhibition by metabolic reaction of the compound. Here, E. coli-expressing CYP3A4 was used as an enzyme, and a reaction wherein 7-benzyloxy trifluoromethylcumarin (BFC) was debenzylated by the CYP3A4 enzyme into a fluorescent metabolite 7-hydroxytrifluoromethylcumarin (HFC) was employed as an indicator reaction.
The reaction conditions are as follows.
Substrate: […] 7-BFC; Pre-reaction time: 0 or 30 minutes; Reaction time: 15 minutes; Reaction temperature: 25° C. […]
The enzyme and a test compound solution are added to a K-Pi buffer (pH 7.4) in the aforementioned amounts for the pre-reaction so that a pre-reaction solution is prepared, and this solution is put into a 96-well plate. […] With respect to each of the plates on which the indicator reaction is performed, the fluorescence value of the metabolite 7-HFC is measured with a fluorescence plate reader (Ex=420 nm, Em=535 nm).
Control (100%) is prepared by adding only DMSO, a solvent to dissolve the test compound, to the reaction system. The remaining activity (%) at each concentration after adding the test compound solution is calculated, and the IC50 value is calculated from the concentration and inhibition percentage by inverse estimation with the logistic model. […]

Aβ42 production = assay: Suppressive activity of Aβ42 production in neuroblast expressing human APP695 (ELISA of secreted Aβ42); assay type: cell-based; conditions: secreted Aβ42, SH-SY5Y-APPwt cells, 24 hours
Procedure: Dose dependent effect of each test compound was evaluated by measurement of secreted Aβ42 and cell viability in SH-SY5Y-APPwt cells. Secreted Aβ42 was quantified by an ELISA assay and cell viability was measured using a cell count reagent.
SH-SY5Y-APPwt cells were generated from human SH-SY5Y neuroblast by transfection of human APP695 DNA as a stable cell-line and cultured in DMEM supplemented with 10% FCS.
SH-SY5Y-APPwt cells were plated at 1.2×10^5 cells/well/150 μl in 96-well plates. A solution of the test compound in DMSO was diluted with DMEM to a concentration 4-fold higher than the final concentration. 50 μl of the diluted solution was sufficiently mixed with the cells and the final DMEM solution was 200 μl/well. The final DMSO concentration was 1%. As a control compound, a γ-secretase inhibitor, DAPT (Calbiochem) was used. 24 hours after, the culture supernatant was collected and appropriately diluted for ELISA quantification of Aβ42. Cells were used for cell viability assay.
Human/Rat β Amyloid(42) ELISA Kit WAKO (WAKO Pure Chemical Industries) was used for ELISA. ELISA was carried out according to the protocols recommended by the manufacturer's instructions. The results were shown as percentage to the Aβ concentration in the medium of control group (% of Control) and then IC50 values of each test compounds were calculated. Cell viability was measured using Cell Count Reagent SF (NACALAI TESQUE) according to the protocols recommended by the manufacturer's instructions. The results were shown as percentage to cell viability of control group (% of Control) and reduction of cell viability was not seen.

hERG channel (IKr) = target: T1, hERG channel (IKr) (Homo sapiens, UniProt Q12809); assay: hERG test (whole-cell patch clamp, IKr); assay type: cell-based; conditions: HEK293 cells that express hERG, pH 7.4, HEK293 cell expressing hERG, room temperature, concentration not given, read-out: inhibitory percentage relative to the maximum tail current (IKr)
T1 construct: expressed in transfected cells; host or cells: HEK293
T1 sequence (Q12809 whole entry): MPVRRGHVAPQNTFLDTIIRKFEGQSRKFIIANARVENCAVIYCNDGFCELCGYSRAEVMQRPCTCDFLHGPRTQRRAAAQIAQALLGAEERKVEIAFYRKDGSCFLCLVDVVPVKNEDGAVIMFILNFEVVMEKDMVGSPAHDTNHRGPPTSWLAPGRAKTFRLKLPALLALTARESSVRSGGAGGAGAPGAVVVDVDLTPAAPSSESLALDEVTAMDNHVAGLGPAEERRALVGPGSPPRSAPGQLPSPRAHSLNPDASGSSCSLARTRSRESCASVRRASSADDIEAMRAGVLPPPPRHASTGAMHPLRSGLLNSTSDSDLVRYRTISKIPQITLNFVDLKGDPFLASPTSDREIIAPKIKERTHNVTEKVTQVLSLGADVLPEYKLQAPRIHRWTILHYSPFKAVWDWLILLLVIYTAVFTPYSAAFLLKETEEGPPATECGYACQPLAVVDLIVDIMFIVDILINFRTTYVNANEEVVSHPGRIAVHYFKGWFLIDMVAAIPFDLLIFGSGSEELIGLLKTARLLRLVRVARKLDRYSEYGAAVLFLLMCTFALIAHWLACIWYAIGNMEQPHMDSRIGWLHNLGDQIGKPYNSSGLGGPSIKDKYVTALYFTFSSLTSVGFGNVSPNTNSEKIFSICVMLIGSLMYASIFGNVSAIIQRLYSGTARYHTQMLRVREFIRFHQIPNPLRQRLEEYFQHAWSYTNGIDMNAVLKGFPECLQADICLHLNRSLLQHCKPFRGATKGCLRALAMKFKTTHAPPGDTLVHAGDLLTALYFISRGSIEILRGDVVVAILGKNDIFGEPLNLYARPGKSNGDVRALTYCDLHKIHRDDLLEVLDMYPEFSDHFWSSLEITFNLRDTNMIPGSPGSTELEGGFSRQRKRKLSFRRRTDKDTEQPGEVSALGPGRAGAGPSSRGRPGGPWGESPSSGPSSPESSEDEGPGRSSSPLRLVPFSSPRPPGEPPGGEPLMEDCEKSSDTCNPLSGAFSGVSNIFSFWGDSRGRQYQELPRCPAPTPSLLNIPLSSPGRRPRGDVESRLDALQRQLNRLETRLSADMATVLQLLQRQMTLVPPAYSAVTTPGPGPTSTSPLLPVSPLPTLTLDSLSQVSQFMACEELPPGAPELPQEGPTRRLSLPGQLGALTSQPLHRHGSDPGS
Text: For the purpose of risk assessment for QT prolongation on an electrocardiogram, the action on delayed rectifier K+ current (IKr) which plays an important role on a process of ventricular repolarization is studied using a HEK293 cell with a human ether-a-go-go related gene (hERG) channel expressed therein.
A cell is maintained at a membrane potential of −80 mV, and then +50 mV of a depolarizing stimulus is applied to the cell for 2 seconds and further −50 mV of a repolarizing stimulus is applied thereto for 2 seconds by a whole-cell patch clamp technique with a fully-automatic patch clamp system (PatchXpress 7000A, Axon Instruments Inc.), and the induced IKr is recorded. As the current generated is stabilized, an extracellular fluid with the test compound dissolved therein at a target concentration (NaCl: 137 mmol/L, KCl: 4 mmol/L, CaCl2.2H2O: 1.8 mmol/L, MgCl2.6H2O: 1 mmol/L, glucose: 10 mmol/L, HEPES (4-(2-hydroxyethyl)-1-piperazineethanesulfonic acid): 10 mmol/L, pH=7.4) is applied to the cell for 10 minutes under room temperature conditions. The absolute value of the maximum tail current is determined from the obtained IKr with an analysis software (DataXpress ver. 1, Molecular Devices Corporation) based on a current value at a maintained membrane potential. Further, an inhibitory percentage relative to the maximum tail current before application of the test compound is calculated, and influence of the test compound on IKr is evaluated in comparison with the medium application group (0.1% dimethyl sulfoxide solution).

Solubility test = assay type: physicochemical; conditions: kinetic from dmso stock; 1% DMSO, artificial intestinal juice pH 6.8, 16 hours at 25° C.
Procedure: The solubility of each compound is determined under 1% DMSO addition conditions. A 10 mM solution of the compound is prepared with DMSO, and 6 μL of the compound solution is added to 594 μL of an artificial intestinal juice (water and 118 mL of 0.2 mol/L NaOH reagent are added to 250 mL of 0.2 mol/L potassium dihydrogen phosphate reagent to reach 1000 mL) with a pH of 6.8. The mixture is left standing for 16 hours at 25° C., and the mixture is vacuum-filtered. The filtrate is two-fold diluted with methanol/water=1/1, and the compound concentration in the filtrate is measured with HPLC or LC/MS/MS by the absolute calibration method.

Metabolic stability test = assay type: in vitro ADME; conditions: human liver microsomes 0.5 mg protein/mL, 1 mmol/L NADPH, 30 minutes at 37° C.
Procedure: The test compound is reacted with commercially available pooled human liver microsomes for a predetermined time period. The residual rate is calculated by comparing the reacted sample and unreacted sample, and thus the degree of metabolism in liver is evaluated. In 0.2 mL of a buffer (50 mmol/L tris-HCl pH 7.4, 150 mmol/L potassium chloride, 10 mmol/L magnesium chloride) containing human liver microsomes 0.5 mg protein/mL, reaction is carried out in the presence of 1 mmol/L NADPH for 0 minute or 30 minutes at 37° C. (oxidative reaction). After the reaction, 50 μL of the reaction solution is added to and mixed with 100 μl of a solution of methanol/acetonitrile=1/1 (v/v), and the mixture is centrifuged for 15 minutes at 3000 rpm. The test compound in the centrifuged supernatant is quantified by LC/MS/MS, and the residual amount of the test compound after the reaction is calculated based on the compound amount at O-minute reaction set as 100%.

γ-secretase = assay: Inhibition of γ-secretase activity: CTFβ ELISA in SH-SY5Y-APPwt cells; assay type: cell-based, human; conditions: concentration 1-fold and 10-fold higher than IC50 for Aβ42 inhibition, 24 hours
Procedure: Inhibition of γ-secretase activity of the test compounds were evaluated by assessment of APP processing by γ-secretase, i.e., by measurement of a γ-secretase substrate C-terminal fragment β (CTFβ) in SH-SY5Y-APPwt cells. Cells were treated in test compound concentration 1-fold and 10-fold higher than its IC50 value for Aβ42 inhibition. CTFβ accumulated by inhibition of γ-secretase activity was quantified by an ELISA assay. SH-SY5Y-APPwt cells were generated from human SH-SY5Y neuroblast by transfection of human APP695 DNA as a stable cell-line and cultured in DMEM supplemented with 10% FCS. SHSY5Y-APPwt cells were plated at 1.0×10^6 cells/well/1 ml DMEM in 6-well plates. A solution of the test compound in DMSO was diluted with DMEM to a concentration 2-fold higher than the final concentration. 1 ml of the diluted solution was sufficiently mixed with the cell and the final DMEM solution was 2 mL/well. The final DMSO concentration was 1%. As a control compound, a γ-secretase inhibitor, DAPT (Calbiochem) was used. […] Protein concentrations in the supernatants were measured by Protein assay Kit (Pierce). The supernatants were diluted and used for CTFβ quantification by βCTF ELISA Kit (IBL) The results were shown as percentage to the CTFβ concentration of control group (added only DMSO) (% of Control), and increasing and decreasing CTFβ of the test compound was calculated. […]

CYP3A4, sequence (P08684 whole entry): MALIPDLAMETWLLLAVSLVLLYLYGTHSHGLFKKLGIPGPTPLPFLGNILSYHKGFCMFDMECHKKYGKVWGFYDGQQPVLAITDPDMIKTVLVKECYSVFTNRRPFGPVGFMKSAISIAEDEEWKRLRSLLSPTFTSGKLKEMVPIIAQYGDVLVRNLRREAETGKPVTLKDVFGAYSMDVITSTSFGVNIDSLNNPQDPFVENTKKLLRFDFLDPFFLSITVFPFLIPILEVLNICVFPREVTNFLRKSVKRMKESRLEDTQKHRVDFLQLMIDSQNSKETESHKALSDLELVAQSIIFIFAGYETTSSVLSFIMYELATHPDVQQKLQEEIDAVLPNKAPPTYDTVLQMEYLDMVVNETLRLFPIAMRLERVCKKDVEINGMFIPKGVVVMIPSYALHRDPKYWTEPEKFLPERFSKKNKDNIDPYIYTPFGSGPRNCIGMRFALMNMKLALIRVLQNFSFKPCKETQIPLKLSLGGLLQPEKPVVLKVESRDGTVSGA

pIC50 (Aβ42 production): 6.05
SMILES: COc1cc(NS(=O)(=O)c2ccc(Cl)c(Cl)c2)ccc1-n1cnc(C)c1 [Compound 1]
CYP3A4 MBI: difference of the IC50 values (CYP3A4): (−) (when the difference is 3 μM or lower, it is regarded as (−))

pIC50 (Aβ42 production): 5.18
SMILES: COc1cc(NS(=O)(=O)Cc2cccc(Cl)c2)ccc1-n1cnc(C)c1 [Compound 38]

SMILES: COc1cc(NS(=O)(=O)c2ccccc2F)ccc1-n1cnc(C)c1 [Compound 69]
inhibition at 10 min (hERG channel (IKr)): 6.4%

solubility at 16 h (Solubility test): > 50 µM
SMILES: COc1cc(NS(=O)(=O)c2ccccc2[N+](=O)[O-])ccc1-n1cnc(C)c1 [Compound 74]
inhibition at 10 min (hERG channel (IKr)): 1.1%

SMILES: COc1cc(NS(=O)(=O)c2ccccc2-c2csc3ccccc23)ccc1-n1cnc(C)c1 [Compound 111]
CYP3A4 MBI: difference of the IC50 values (CYP3A4): (−) (when the difference is 3 μM or lower, it is regarded as (−))

residual amount of the test compound after the reaction (Metabolic stability test): 97.0%
SMILES: COc1cc(NS(=O)(=O)c2ccc(Cl)nc2)ccc1-n1cnc(C)c1 [Compound 113]
inhibition at 10 min (hERG channel (IKr)): 8.5%

residual amount of the test compound after the reaction (Metabolic stability test): 97.8%
SMILES: COc1cc(NS(=O)(=O)c2cccnc2Cl)ccc1-n1cnc(C)c1 [Compound 115]

solubility at 16 h (Solubility test): > 50 µM
SMILES: COc1cc(NS(=O)(=O)c2ccccc2-c2ccncc2)ccc1-n1cnc(C)c1 [Compound 178]

pIC50 (Aβ42 production): 5.80
SMILES: COc1cc(N2Cc3ccc(-c4ccccc4Cl)cc3C2=O)ccc1-n1cnc(C)c1 [Compound 189]

pIC50 (Aβ42 production): 6.10
SMILES: COc1cc(N2CCC(NC(=O)c3cccc(Cl)c3)C2=O)ccc1-n1cnc(C)c1 (centres unmarked) [Compound 201]

pIC50 (Aβ42 production): 5.74
SMILES: COc1cc(N2CCC(NCc3ccc(Cl)cc3)C2=O)ccc1-n1cnc(C)c1 (centres unmarked) [Compound 231]

pIC50 (Aβ42 production): 6.15
SMILES: COc1cc(N2CCC(C(c3ccccc3)c3ccccc3)C2=O)ccc1-n1cnc(C)c1 (centres unmarked) [Compound 259]

pIC50 (Aβ42 production): 5.96
SMILES: COc1cc(NC(=O)Cc2ccc(Cl)c(Cl)c2)ccc1-n1cnc(C)c1 [Compound E8]

SMILES: C[C@H](NC(=O)Cc1cc(F)cc(F)c1)C(=O)N[C@H](C(=O)OC(C)(C)C)c1ccccc1 [DAPT]
change of CTFβ (γ-secretase): dose-dependently increased CTFβ

From US20120135997A1, “PHARMACEUTICAL COMPOSITION COMPRISING A LACTAM OR BENZENESULFONAMIDE COMPOUND” (Shionogi & Co., Ltd., priority 2009, published 2012)
